Measured values published in patent publication US11369592B2 (priority 2020, dated 2022).
Where two headings read alike, the source gives them in different places.

What was measured:
[1] = system: Influenza B/Florida/4/2006; assay: CPE inhibition assay (visual and neutral red); settings: for EC50: Influenza B virus; for EC50 (cell spans EC50, CC50, SI): MA-104 or MDCK, Visual or Neutral Red, concentration range 0.3-300
[2] = over the tolerated dose range; cited from earlier work
[3] = cited from earlier work
[4] = system: Influenza H5 N1/Duck/MN/1525/81
[5] = system: Influenza H5 N1/Duck/MN/1525/81; assay: organism not typed
SARS-CoV-2 [6] = assay: SARS-CoV-2 apical replication in MucilAir-Pool (genome copies ORF1b-nsp14, Taqman RT-PCR); format: cell-based
endogenous esterases = settings: Kang (1996) Glycobiology; cited from earlier work
[7] = system: MucilAir™-Pool human airway epithelium; assay: Cilia beating frequency (CBF) on MucilAir-Pool, Phase 1; format: cell-based; settings: Day 3, room temperature
Experimental: Effect on cilia included cilia motion: Cilia Beating Frequency (CBF).
(§1) Repeated basolateral exposure once a day of test compounds on MucilAir™-Pool. Transepithelial electrical resistance (TEER) was assessed each day. LDH release indicating cytotoxicity, was measured at Day 2 and 3 (24 hours accumulation). Cilia beating frequency (CBF) was measured once, at the end of the experiment, at Day 3. (FIG. 7)
(§2) Number of concentrations: 3 doses • Celgosivir=100, 30 and […] on basolateral side in 0.2% DMSO and 2% fetal bovine serum
Cilia beating frequency was monitored using a MAKO G030B camera connected to a ZEISS Primovert microscope with a 5× objective.
CBF measurement is based on the capture of 256 frames at high frequency rate (125 frames per second) at room temperature via the specific package of software. The frequency is expressed as Hertz and was calculated using an Epithelix software.

SARS-CoV-2 [8] = assay: SARS-CoV-2 apical infectious titre in MucilAir-Pool (TCID50); settings: for reduction of SARS-CoV-2 titre at apical side: 48 hours
[9] = system: MucilAir™-Pool human airway epithelium infected with SARS-CoV-2; assay: Tissue integrity (TEER) upon SARS-CoV-2 infection in MucilAir-Pool, Phase 2; format: cell-based
[10] = Pharmacokinetic simulations using CELADEN castanospermine parameters; set-up: species or system human; settings: linear extrapolation
Experimental: It is known that a steady state minimum castanospermine concentration of 400 nanograms/ml is associated with a 50 mg/kg BID dose in mice and that the antiviral effect of celgosivir in vivo seems to be correlated with the minimum steady state concentration of castanospermine. […] International Publication No. WO 2014/143907 discloses pharmacokinetic parameters for castanospermine for the CELADEN study. […] Extrapolating linearly, therefore, the minimum protective dose (achieving 400 nanograms/ml steady state minimum) is approximately 40 mg every 6h, 75 mg every 8 h and 225 mg every 12 h. Further, WO 2014/143907 discloses that the CELADEN study regimen produce a steady state maximum castanospermine concentration of 5100 nanograms/ml. […] The FDA has published generic scaling factors to adjust mg/kg dosing in animals to mg/kg dosing in humans. Generically for mice, that scaling factor is 12. Therefore, 50 mg/kg BID is equivalent to a dose of 4.2 mg/kg BID in humans, which for a 60 kg human is equivalent to 250 mg. The same dose administered three or four times daily is equivalent to 167 mg and 125 mg and 2.8 and 2.1 mg/kg respectively. In a 60 kg human, the maximum single dose is 6.7 mg/kg, and the maximum daily dose is 10 mg/kg.

[11] = system: Influenza A H1N1/California/07/2009; assay: CPE inhibition assay (visual and neutral red); settings: for EC50: Influenza A virus, H1N1; for EC50 (cell spans EC50, CC50, SI): MA-104 or MDCK, Visual or Neutral Red, concentration range 0.3-300
[12] = system: MucilAir™-Pool human airway epithelium; assay: Tissue integrity (TEER) of uninfected MucilAir-Pool, Phase 1; format: cell-based; settings: all three tested concentrations, up to three days; threshold 100 Ω·cm^2
Experimental: (§3) The testing strategies includes basolateral exposure of test compounds on MucilAir™-Pool.
(§4) Global markers of Toxicity included (1) Tissue integrity monitoring: Trans-epithelial electrical resistance (TEER) measurement and (2) Cytotoxicity: Lactate dehydrogenase (LDH) assay.
as §1, §2
TEER is a dynamic parameter that reflects the state of epithelia and is typically between 200 to 600 Ω·cm^2. An increase of the TEER value reflects a blockage of the ion channel activities. A notable decrease of the TEER values (but >100 Ω·cm^2) could be observed in certain cases, reflecting an activation of the ion channels. Disruption of cellular junction or holes in the epithelia result in TEER values below 100 Ω·cm^2. […]
After addition of 200 μl of 0.9% saline solution to the apical compartment of MucilAir™ cultures, resistance was measured with an EVOMX volt-ohm-meter (World Precision Instruments UK, Stevenage) for each condition. […]

[13] = system: MucilAir™-Pool human airway epithelium; assay: Lactate dehydrogenase (LDH) cytotoxicity assay on MucilAir-Pool, Phase 1; format: cell-based
Experimental: as §3, §4
as §1, with “7) […]” for “7)”
Lactate dehydrogenase is a stable cytoplasmic enzyme that is rapidly released into the culture medium upon rupture of the plasma membrane. 100 μL basolateral medium collected at each time-point was incubated with the reaction mixture of the Cytotoxicity Detection Kit^PLUS, following manufacturer's instructions (Sigma, Roche, 11644793001). The amount of the released LDH was then quantified by measuring the absorbance of each sample at 490 nm with a microplate reader. To determine the percentage of cytotoxicity, the following equation was used (A=absorbance values): Cytotoxicity (%)=(A (exp value)−A (low control)/A (high control)−A (low control))*100
The high control value was obtained by 10% Triton X-100 treatment 24 hours prior to the assay. Triton X-100 causes a massive LDH release and corresponds to 100% cytotoxicity.

[14] = system: Parainfluenza virus 3/14702; assay: CPE inhibition assay (visual and neutral red); settings: for EC50 (cell spans EC50, CC50, SI): MA-104 or MDCK, Visual or Neutral Red, concentration range 0.3-300
Human rhinovirus 14/1059 = assay: CPE inhibition assay (visual and neutral red); settings: for EC50 (cell spans EC50, CC50, SI): MA-104 or MDCK, Visual or Neutral Red, concentration range 0.3-300; for EC50: Rhinovirus B
[15] = system: Influenza B/Brisbane/60/2008; assay: CPE inhibition assay (visual and neutral red); settings: for EC50: Influenza B virus; for EC50 (cell spans EC50, CC50, SI): MA-104 or MDCK, Visual or Neutral Red, concentration range 0.3-300
[16] = mice; 50 mg/kg BID dose; cited from earlier work

CCCC(=O)O[C@H]1CN2CC[C@H](O)[C@@H]2[C@@H](O)[C@@H]1O [Celgosivir, 6-O-butanoyl castanospermine]
EC50 [1]: > 300 µM
EC50 (cell spans EC50, CC50, SI) [1]: Not active
pharmacokinetics versus dose [2]: linear with dose
adverse event profile ([3]; CELADEN study dose): higher incidence of GI effects, but not increased severity
maximum daily dose as a total dose ([3]; human, in theory): 600 mg
maximum dose as a single dose ([3]; human, in theory): 400 mg
EC50 (cell spans EC50, CC50, SI) [4]: Not active
EC50 [5]: > 300 µM
reduction of viruses (genome copies) (SARS-CoV-2 [6]; 30 mM (so in the source), 48 hours): 1.2 log10
reduction of viruses (genome copies) (SARS-CoV-2 [6]; 30 mM (so in the source), later time point (72 hours)): 0.9 log10
reduction of viruses (genome copies) (SARS-CoV-2 [6]; 100 mM (so in the source), 48 hours): 1.4 log10
reduction of viruses (genome copies) (SARS-CoV-2 [6]; 100 mM (so in the source), later time point (72 hours)): 1 log10
inhibition of SARS-CoV-2 replication, dose relation (SARS-CoV-2 [6]; 3 doses, basolateral once a day for 3 days): dose dependent inhibition
SARS-CoV-2 replication (SARS-CoV-2 [6]; 3 microM): diminished extent
SARS-CoV-2 replication (SARS-CoV-2 [6]; 30 and 100 microM): decreased
conversion to castanospermine (endogenous esterases): rapidly converted by endogenous esterases to castanospermine
crossing of cell membranes (endogenous esterases): readily crosses cell membranes
cilia motion (cilia beating frequency) [7]: did not modify significantly
reduction of SARS-CoV-2 titre at apical side (SARS-CoV-2 [8]; 30 mM (so in the source)): 1 log10
reduction of SARS-CoV-2 titre at apical side (SARS-CoV-2 [8]; 100 mM (so in the source)): 1.9 log10
yield of viral progeny (SARS-CoV-2 [8]; 3 microM): diminished extent
yield of viral progeny (SARS-CoV-2 [8]; 30 and 100 microM): decreased
reducing effect on SARS-CoV-2 titre (SARS-CoV-2 [8]; 72 hours, concentration not given): 1.1 log
effect against virus-induced cytopathology ([9]; 3 microM): diminished extent
SARS-CoV-2 induced decrease of TEER ([9]; 30 and 100 μM, 48 and 72 hours post-inoculation): prevented
effect against virus-induced cytopathology ([9]; 30 and 100 microM): protective effective
minimum protective dose (achieving 400 nanograms/ml steady state minimum) ([10]; every 6h): approximately 40 mg
minimum protective dose (achieving 400 nanograms/ml steady state minimum) ([10]; every 8 h): ~75 mg
minimum protective dose (achieving 400 nanograms/ml steady state minimum) ([10]; every 12 h): ~225 mg
EC50 [11]: > 300 µM
EC50 (cell spans EC50, CC50, SI) [11]: Not active
Epithelial barrier function (TEER) [12]: > 100 Ω·cm^2
cytotoxicity (LDH release) ([13]; Day 2 and 3, threshold limit 5% cytotoxicity): No cytotoxicity
evidence of cytotoxicity (TEER, cytotoxicity and CBF values versus controls) ([13]; concentrations at or below 100 microM): did not exhibit evidence of cytoxicity
EC50 [14]: > 300 µM
EC50 (cell spans EC50, CC50, SI) [14]: Not active
EC50 (cell spans EC50, CC50, SI) (Human rhinovirus 14/1059): Not active
EC50 (Human rhinovirus 14/1059): > 300 µM
EC50 [15]: > 300 µM
EC50 (cell spans EC50, CC50, SI) [15]: Not active

NC(=O)c1ncn([C@@H]2O[C@H](CO)[C@@H](O)[C@H]2O)n1 [Ribavirin, reference compound]
EC50 [1]: < 10 µM
EC50 [5]: < 10 µM
EC50 [11]: < 10 µM
EC50 [14]: < 10 µM
EC50 (Human rhinovirus 14/1059): < 10 µM
EC50 [15]: < 10 µM

O[C@H]1[C@H](O)[C@@H](O)CN2CC[C@H](O)[C@H]12 [castanospermine, (1S,6S,7R,8aR)-Tetrahydroxyoctahydroindolizine]
EC50 [1]: > 300 µM
EC50 (cell spans EC50, CC50, SI) [1]: Not active
steady state maximum castanospermine concentration ([3]; CELADEN study regimen): 5100 nanograms/ml
EC50 (cell spans EC50, CC50, SI) ([4]; MA-104 or MDCK, Visual or Neutral Red, concentration range 0.3-300): Not active
EC50 [5]: > 300 µM
steady state minimum castanospermine concentration [16]: 400 nanograms/ml
EC50 [11]: > 300 µM
EC50 (cell spans EC50, CC50, SI) [11]: Not active
EC50 [14]: > 300 µM
EC50 (cell spans EC50, CC50, SI) [14]: Not active
EC50 (cell spans EC50, CC50, SI) (Human rhinovirus 14/1059): Not active
EC50 (Human rhinovirus 14/1059): > 300 µM
EC50 [15]: > 300 µM
EC50 (cell spans EC50, CC50, SI) [15]: Not active

Triton X-100 [reference compound]
induced toxicity (LDH release) ([13]; 10% Triton X-100 solution, apical, 24 h, high control): 100%
